Consider eleven compounds from patent US20110086834A1, “ALKYNYL ALCOHOLS AS KINASE INHIBITORS” (AMGEN INC., priority 2008, published 2011).

The target in the assay is T1, NIK (Homo sapiens, UniProt Q99558).
T1 construct: Both assays utilize a truncated form of NIK containing only the catalytic domain; made in house; host or cells: baculovirus expression system (insect cells implied)
Put plainly: homogenous time resolved fluorescence (HTRF) assay for NIK Ki measurement. The conditions noted are these: truncated NIK (catalytic domain only), autophosphorylation; 10 nM enzyme; 20, 100, 200 or 500 μM ATP; room temperature, 2 hours; read-out: Ki activity in the homogenous time resolved fluorescence (HTRF) assay for NIK. Format: biochemical. Here is the method:
Two formats of biochemical assays are implemented: (1) chemiluminescent (CL) assay for NIK IC50 determination; (2) homogenous time resolved fluorescence (HTRF) assay for NIK Ki measurement. […] The NIK proteins are purified with baculovirus expression system and further biotinylated with N-hydroxysuccinamide biotin ester (Sigma). […] The reaction mixtures are then immobilized on a Streptavidin-coated plate (Pierce). […] For the HTRF assay, 10 nM of enzyme are incubated with compounds in the presence of 20, 100, 200, or 500 μM of ATP in a buffer with 20 mM of Hepes pH7.5, 20 mM of MgCl2, 0.2% of Tween 20 and 1 mM of DTT at room temperature for 2 hours.
On the technique in general: In TR-FRET formats the signal depends on donor and acceptor labels being close together.

T1 sequence (Q99558 400-655 limits assumed): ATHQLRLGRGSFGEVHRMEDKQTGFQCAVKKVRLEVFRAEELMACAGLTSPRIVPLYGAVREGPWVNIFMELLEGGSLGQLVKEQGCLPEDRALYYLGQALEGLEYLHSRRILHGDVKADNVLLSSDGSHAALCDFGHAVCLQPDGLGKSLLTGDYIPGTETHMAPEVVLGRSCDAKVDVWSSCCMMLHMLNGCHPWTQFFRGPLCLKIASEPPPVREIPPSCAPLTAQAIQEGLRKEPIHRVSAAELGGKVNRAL

Consider `Cc1cc(C(C)(O)C#Cc2ccc3c(c2)N(c2nc(N)ncc2Cl)CC3)no1` (racemic) [Example 23, 4-(1-(2-amino-5-chloropyrimidin-4-yl)indolin-6-yl)-2-(5-methylisoxazol-3-yl)but-3-yn-2-ol], for which the Ki – broadly, a measure of affinity in units of concentration, obtained from inhibition or displacement – is below 1000 nM. For `CC(O)(C#Cc1ccc2c(c1)N(c1nc(N)ncc1Cl)CC2(C)C)c1nccs1` (racemic) [Example 39, 4-(1-(2-amino-5-chloro-4-pyrimidinyl)-3,3-dimethyl-2,3-dihydro-1H-indol-6-yl)-2-(1,3-thiazol-2-yl)-3-Butyn-2-ol], the Ki was below 1000 nM. On to `CN1CC2(C1)CN(c1nc(N)ncc1Cl)c1cc(C#CC(C)(O)c3nccs3)ccc12` (racemic) [Example 181, (rac)-4-(1′-(2-amino-5-chloropyrimidin-4-yl)-1-methylspiro[azetidine-3,3′-indoline]-6′-yl)-2-(thiazol-2-yl)but-3-yn-2-ol], for which the Ki was below 1000 nM. In the case of `CN1CCC2(C1)CN(c1nc(N)ncc1Cl)c1cc(C#CC3(O)CCCC3)ccc12` (racemic) [Example 188, 1-((1-(2-Amino-5-chloro-4-pyrimidinyl)-r-methyl-1,2-dihydrospiro[indole-3,3′-pyrrolidin]-6-yl)ethynyl)cyclopentanol], the Ki is below 1000 nM.

For the compound `CN1CCC2(C1)CN(c1nc(N)ncc1F)c1cc(C#CC3(O)CCCC3)ccc12` (racemic) [Example 190, (rac)-1-((1-(2-Amino-5-fluoro-4-pyrimidinyl)-1′-methyl-1,2-dihydrospiro[indole-3,3′-pyrrolidin]-6-yl)ethynyl)cyclopentanol], the Ki was below 1000 nM. For `CC(O)(C#Cc1ccc2c(c1)N(c1nc(N)ncc1Cl)CC21CCOC1)c1nccs1` (racemic) [Example 198, 4-(1′-(2-Amino-5-chloro-4-pyrimidinyl)-1′,2′,4,5-tetrahydrospiro[furan-3,3′-indol]-6′-yl)-2-(1,3-thiazol-2-yl)-3-butyn-2-ol] the value was below 1000 nM; for `CC(O)(C#Cc1ccc2c(c1)N(c1nc(N)ncc1Cl)CC21CCOCC1)c1nccs1` (racemic) [Example 208, (rac)-4-(1-(2-Amino-5-chloro-4-pyrimidinyl)-1,2,2′,3′,5′,6′-hexahydrospiro[indole-3,4′-pyran]-6-yl)-2-(1,3-thiazol-2-yl)-3-butyn-2-ol], below 1000 nM; for `Cc1cc(C(C)(O)C#Cc2ccc3c(c2)N(c2nc(N)ncc2Cl)CC32CCOCC2)no1` (racemic) [Example 210, (rac)-4-(1-(2-Amino-5-chloro-4-pyrimidinyl)-1,2,2′,3′,5′,6′-hexahydrospiro[indole-3,4′-pyran]-6-yl)-2-(5-methyl-3-isoxazolyl)-3-butyn-2-ol], below 1000 nM. Next, `CC(O)(C#Cc1ccc2c(c1)N(c1nc(N)ncc1Cl)CC21CCSCC1)c1nccs1` (racemic) [Example 214, (rac)-4-(1-(2-Amino-5-chloro-4-pyrimidinyl)-1,2,2′,3′,5′,6′-hexahydrospiro[indole-3,4′-thiopyran]-6-yl)-2-(1,3-thiazol-2-yl)-3-butyn-2-ol]: below 1000 nM. Turning to `CC(O)(C#Cc1ccc2c(c1)N(c1nc(N)ncc1Cl)CC21CCS(=O)(=O)CC1)c1nccs1` (racemic) [Example 215, (rac)-4-(1-(2-Amino-5-chloro-4-pyrimidinyl)-1′,1′-dioxido-1,2,2′,3′,5′,6′-hexahydrospiro[indole-3,4′-thiopyran]-6-yl)-2-(1,3-thiazol-2-yl)-3-butyn-2-ol], the inhibition constant Ki is below 1000 nM. For `Cc1cc(C(C)(O)C#Cc2ccc3c(c2)N(c2nc(N)ncc2Cl)CC32CCS(=O)(=O)CC2)no1` (racemic) [Example 216, (rac)-4-(1-(2-Amino-5-chloro-4-pyrimidinyl)-1′,1′-dioxido-1,2,2′,3′,5′,6′-hexahydrospiro[indole-3,4′-thiopyran]-6-yl)-2-(5-methyl-3-isoxazolyl)-3-butyn-2-ol] the value was below 1000 nM.
